The values below come from ChEMBL document CHEMBL1138175, “Novel 1alpha,25-dihydroxyvitamin D3 analogues with the side chain at C12” (J Med Chem, 2006).

The target in assay [1] is T1, Vitamin D3 receptor (Homo sapiens) (UniProt P11473).
T1 sequence (whole entry): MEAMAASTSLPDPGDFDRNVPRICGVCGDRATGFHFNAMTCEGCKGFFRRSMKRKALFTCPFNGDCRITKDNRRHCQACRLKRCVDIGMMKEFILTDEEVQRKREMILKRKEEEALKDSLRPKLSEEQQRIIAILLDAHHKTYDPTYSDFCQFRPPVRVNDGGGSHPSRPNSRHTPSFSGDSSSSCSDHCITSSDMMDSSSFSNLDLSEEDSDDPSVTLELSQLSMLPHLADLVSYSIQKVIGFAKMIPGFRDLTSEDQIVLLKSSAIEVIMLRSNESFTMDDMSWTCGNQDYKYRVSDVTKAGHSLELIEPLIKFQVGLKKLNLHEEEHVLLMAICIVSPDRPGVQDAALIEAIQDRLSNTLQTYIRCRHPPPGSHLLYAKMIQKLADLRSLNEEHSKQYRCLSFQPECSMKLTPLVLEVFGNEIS
Kind of assay: Effect on Gal4 DBD-hVDRdelta LBD construct transactivation in COS7 cells at 10(-5) M. The assay is classed as functional, cell-based. Particulars: COS-7.

Assay [2] addresses T1, Vitamin D3 receptor (Homo sapiens). The assay is described as follows: Effect on Gal4 DBD-hVDRdelta LBD construct transactivation in COS7 cells at 10(-7) M. The assay is classed as functional, cell-based. Particulars: COS-7.

Regarding `C=C1/C(=C\C=C2/CC[C@@H](CCCCCCC(C)(C)O)[C@]3(C)CCC[C@@H]23)C[C@@H](O)C[C@@H]1O`, the figures for the Activity in assay [1] and in assay [2] were 100% and 20%, respectively. In turn, `C=C1/C(=C\C=C2/CC[C@@H](CCCCCCCC(C)(C)O)[C@]3(C)CCC[C@@H]23)C[C@@H](O)C[C@@H]1O` came in with an Activity in assay [2] of 6%. On the same count and under the same terms, then `C=C1/C(=C\C=C2/CC[C@@H](CCCCCC(C)(C)O)[C@]3(C)CCC[C@@H]23)C[C@@H](O)C[C@@H]1O`, with 8%.
